Reference: paper PMC4731763, “Naturally occurring proteinaceous nanoparticles in Coptidis Rhizoma extract act as concentration-dependent carriers that facilitate berberine absorption” (Scientific Reports, 2016)
Read-outs that look alike come from different tables or passages of the source.

Key:
[1] = tested on: P-gp; conditions: cited from earlier work
[2] = tested on: mice; conditions: mouse, in vivo
Description: The mice (n = 20 mice per group, 10 males and 10 females) were orally administered the test materials and the reactions of the mice were recorded for 7 days. Using this method, the acute oral toxicities of the following materials were tested at the dose volume of 0.2 mL/10 g body weight (dissolved in water) and compared: (1) the Coptidis Rhizoma extract (1 or 3 g/kg); (2) the supernatant of the Coptidis Rhizoma extract (3 g/kg) after centrifugation (300,000 g, 30 min, 4 °C); (3) pure berberine (206 or 618 mg/kg, equal to the dose of berberine in the 1 and 3 g/kg extracts, respectively); (4) alkaloid extract of Coptidis Rhizoma (1259 mg/kg, equal to the dose of berberine in the 3 g/kg extract).

[3] = Pharmacokinetics in mice: plasma berberine exposure after oral administration; format: in vivo; conditions: both sexes, Kun-Ming, mouse
Description: A Shimadzu Prominence UFLCXR series HPLC (Shimadzu, Japan) and a Thermo Scientific TSQ Quantum Ultra mass spectrometer (Thermo Scientific, Waltham, MA, USA) equipped with an electrospray ionization (ESI) source were used. The samples were precipitated with 3 volumes of acetonitrile. Carbamazepine was used as the internal standard. After centrifugation (24,000 g, 6 min, 4 °C), the supernatant was mixed with an equal volume of water and 10-μL samples were injected into the LC-MS/MS system. The samples were eluted through a Hypersil Gold (C18) analytical column (5 μm, 100 × 2.1 mm) with a gradient of the aqueous phase (0.08% v/v formic acid and 2 mM ammonium acetate) and the acetonitrile phase (0 min, 85:15; 7 min, 32:68; 7.01 min, 85:15; 10 min, 85:15) at a flow rate of 0.3 mL/min. The ESI source was set to positive ion mode. Data acquisition was performed in the multiple reaction monitoring mode of the selective mass transition for each compound. The transitions from the precursor ions to the protonated fragment product ions were monitored: m/z 336.15 → m/z 322.28 for berberine and m/z 237.00 → m/z 194.31 for carbamazepine. The linear dynamic range for berberine in the tested biological samples was 0.5 to 500 ng/mL. […] The accuracy, precision, recovery, and stability tests all met the requirements of quantitative determination in biological samples. […]

[4] = set-up: method as in PMID 20138204; conditions: cited from earlier work

SMILES | Effect on P-gp [1] | Acute oral toxicity (survival of mice) ([2]; 206 mg/kg) | Acute oral toxicity (reaction or death of mice) ([2]; 618 mg/kg) | AUC(0-t) ([3]; 206 mg/kg pure berberine, read-out: Plasma berberine AUC0–24 h) [ng·h/mL] | AUC(0-t) ([3]; 618 mg/kg pure berberine, read-out: Plasma berberine AUC0–4 h) [ng·h/mL] | Toxicity in vivo after oral administration [4] | P-gp substrate status [1]
COc1cc([C@H]2Oc3cc(-c4cc(=O)c5c(O)cc(O)cc5o4)cc(OC)c3O[C@@H]2CO)ccc1O (racemic) [5′-methoxyhydnocarpin] | inhibitory effects on P-gp |  |  |  |  |  | 
COc1ccc2cc3[n+](cc2c1OC)CCc1cc2c(cc1-3)OCO2 [pure berberine, berberine] |  | survived | did not show toxic reactions | 722 | 22.1 | weak toxicity | P-gp substrate
